# Laboratory results as given in ChEMBL document CHEMBL6153017, “Progress on the mechanism of natural products alleviating androgenetic alopecia” (2024).
# Columns and labels:
# Type in all cases: functional
# Hair follicle [1] = assay: Upregulation of PTCH mRNA expression in human hair follicle assessed as fold change at 0.5 uM measured for 48 hrs by qRT-PCR analysis
# Hair follicle [2] = assay: Upregulation of SHH mRNA expression in human hair follicle assessed as fold change at 0.5 uM measured for 48 hrs by qRT-PCR analysis
# Hair follicle [3] = assay: Upregulation of Gli mRNA expression in human hair follicle assessed as fold change at 0.5 uM measured for 48 hrs by qRT-PCR analysis
# Hair follicle [4] = assay: Upregulation of RBPJ mRNA expression in human hair follicle assessed as fold change at 5 ug/ml; details: dose 5 µg/ml
# Hair follicle [5] = assay: Upregulation of Smo mRNA expression in human hair follicle assessed as fold change at 0.5 uM measured for 48 hrs by qRT-PCR analysis
structure (smiles),measurement,setting,value
O=C(O[C@@H]1Cc2c(O)cc(O)cc2O[C@@H]1c1cc(O)c(O)c(O)c1)c1cc(O)c(O)c(O)c1 [EPIGALOCATECHIN GALLATE],fold change (FC),Hair follicle [1],4.18
same,fold change (FC),Hair follicle [2],4.48
same,fold change (FC),Hair follicle [3],1.67
same,fold change (FC),Hair follicle [4],7
same,fold change (FC),Hair follicle [5],4.71
